Patent US11384060B2, “Amide compounds and use thereof” (ALPHALA CO., LTD., priority 2017, dated 2022)
Like-named read-outs stand apart in the source and are kept apart here.

Tests used:
[1] = molecular target: T1, glucagon receptor (GCGR) (Homo sapiens, UniProt P47871); experiment: I125-glucagon binding assay (competition, GCGR membrane fractions)
T1 construct: expressed in transfected cells; host or cells: CHO-K1 cells overexpressing GCGR (membrane fractions)
Method in brief: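 Competition of 0.0625 nM (final) I^125-glucagon for 30 min at 25° C, after 5 min compound preincubation, using 7.5 μg/well GCGR-overexpressing CHO-K1 membranes in 50 mM Tris pH 7.4, 0.5% BSA. Filtration onto PEI-coated GF/B, micro-beta counting, and non-linear regression gave IC50.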

[2] = molecular target: T2, glucagon receptor (GCGR) overexpressed CHO-K1 cells or human primary hepatocytes (Homo sapiens, UniProt P47871); experiment: Glucagon cAMP inhibition assay (Cisbio cAMP Dynamic 2 HTRF); type: cell-based
T2 construct: expressed in transfected cells; host or cells: GCGR overexpressed CHO-K1 cells or human primary hepatocytes (endogenous receptor)
T2 sequence (P47871 26-477): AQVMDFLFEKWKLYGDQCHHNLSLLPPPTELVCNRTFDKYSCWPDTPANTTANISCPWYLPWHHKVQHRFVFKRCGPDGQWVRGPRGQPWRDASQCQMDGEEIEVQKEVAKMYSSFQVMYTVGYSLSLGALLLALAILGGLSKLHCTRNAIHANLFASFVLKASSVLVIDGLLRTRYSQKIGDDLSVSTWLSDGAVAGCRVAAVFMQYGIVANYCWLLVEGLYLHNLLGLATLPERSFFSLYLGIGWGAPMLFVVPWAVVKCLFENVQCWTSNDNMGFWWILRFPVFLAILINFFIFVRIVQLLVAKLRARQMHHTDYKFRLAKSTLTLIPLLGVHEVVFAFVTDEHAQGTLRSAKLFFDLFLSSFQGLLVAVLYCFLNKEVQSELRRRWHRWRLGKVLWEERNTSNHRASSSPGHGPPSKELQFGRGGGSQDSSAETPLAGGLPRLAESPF
Method in brief: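 HTRF read-out of glucagon-induced cAMP, with IC50 from non-linear regression. Cells (GCGR CHO-K1 or human primary hepatocytes) in HBSS/0.1% BSA/800 nM IBMX took compound dilutions for 30 min (final DMSO 1%), then EC50-level glucagon for 30 min at room temperature, then a 60 min lysis/detection step.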

T1 sequence (P47871 26-477): as above

Compound | IC50 ([1]; uM) [µM] | IC50 cAMP [2] [µM] | IC50 [1] [µM] | IC50 cAMP ([2]; uM) [µM]
CCOC(=O)CCNC(=O)c1ccc(N[C@H](Cc2ccccc2)C(=O)Nc2ccc(C(F)(F)F)cc2)cc1 [Compound 24-3, Ethyl (R)-3-(4-((1-oxo-3-phenyl-1-((4-(trifluoromethyl)phenyl)amino)propan-2-yl)amino)benzamido)propanoate] | > 10 | 0.208 | – | –
CCOC(=O)CCNC(=O)c1ccc(N[C@@H](Cc2ccccc2)C(=O)Nc2ccc(C(F)(F)F)cc2)cc1 [Compound 24-5, Ethyl (S)-3-(4-((1-oxo-3-phenyl-1-((4-(trifluoromethyl)phenyl)amino)propan-2-yl)amino)benzamido)propanoate] | > 10 | 5.8 | – | –
O=C(O)CCNC(=O)c1ccc(N[C@@H](Cc2ccccc2)C(=O)Nc2ccc(C(F)(F)F)cc2)cc1 [Compound 24-6, (S)-3-(4-((1-oxo-3-phenyl-1-((4-(trifluoromethyl)phenyl)amino)propan-2-yl)amino)benzamido)propanoic Acid] | – | – | 7.4 | >10
CCOC(=O)CCNC(=O)c1ccc(N[C@H](C(=O)Nc2ccc3cc(OC)ccc3c2)[C@@H](C)CC)cc1 [Compound 24-7, Ethyl 3-(4-(((2S,3S)-1-((6-methoxynaphthalen-2-yl)amino)-3-methyl-1-oxopentan-2-yl)amino)benzamido)propanoate] | – | 0.217 | 11.4 | –
CC[C@H](C)[C@H](Nc1ccc(C(=O)NCCC(=O)O)cc1)C(=O)Nc1ccc2cc(OC)ccc2c1 [Compound 24-8, 3-(4-(((2S,3S)-1-((6-methoxynaphthalen-2-yl)amino)-3-methyl-1-oxopentan-2-yl)amino)benzamido)propanoic Acid] | – | – | 1.03 | >10
CCOC(=O)CCNC(=O)c1ccc(N[C@H](CC(C)C)C(=O)Nc2ccc(C(F)(F)F)cc2)cc1 [Compound 24-9, Ethyl (R)-3-(4-((4-methyl-1-oxo-1-((4-(trifluoromethyl)phenyl)amino)pentan-2-yl)amino)benzamido)propanoate] | > 10 | 1.059 | – | –
CC(C)C[C@@H](Nc1ccc(C(=O)NCCC(=O)O)cc1)C(=O)Nc1ccc(C(F)(F)F)cc1 [Compound 24-10, (R)-3-(4-((4-methyl-1-oxo-1-((4-(trifluoromethyl)phenyl)amino)pentan-2-yl)amino)benzamido)propanoic Acid] | – | 30.78 | 5.82 | –
CCOC(=O)CCNC(=O)c1ccc(N[C@H](Cc2ccc(-c3ccc(C(C)(C)C)cc3)cc2)C(=O)Nc2ccc(C(F)(F)F)cc2)cc1 [Compound 24-15, Ethyl (R)-3-(4-((3-(4′-(tert-butyl)-[1,1′-biphenyl]-4-yl)-1-oxo-1-((4-(trifluoromethyl)phenyl)amino)propan-2-yl)amino)benzamido)propanoate] | – | 7.988 | 0.578 | –
CCOC(=O)CCNC(=O)c1ccc(N[C@H](Cc2ccc(-c3ccc(Cl)cc3Cl)cc2)C(=O)Nc2ccc(C(F)(F)F)cc2)cc1 [Compound 24-17, Ethyl (R)-3-(4-((3-(2′,4′-dichloro-[1,1′-biphenyl]-4-yl)-1-oxo-1-((4-(trifluoromethyl)phenyl)amino)propan-2-yl)amino)benzamido)propanoate] | > 30 | 0.1671 | – | –

More lines, now with the values ahead:

IC50 ([1]; uM) [µM] | IC50 cAMP [2] [µM] | IC50 [1] [µM] | IC50 cAMP ([2]; uM) [µM] | Compound
– | 1.51 | 0.239 | – | O=C(O)CCNC(=O)c1ccc(N[C@H](Cc2ccc(-c3ccc(Cl)cc3Cl)cc2)C(=O)Nc2ccc(C(F)(F)F)cc2)cc1 [Compound 24-18, (R)-3-(4-((3-(2′,4′-dichloro-[1,1′-biphenyl]-4-yl)-1-oxo-1-((4-(trifluoromethyl)phenyl)amino)propan-2-yl)amino)benzamido)propanoic Acid]
– | 0.5384 | 1.37 | – | CCOC(=O)CCNC(=O)c1ccc(N[C@H](Cc2ccc(-c3cc4ccccc4o3)cc2)C(=O)Nc2ccc(C(F)(F)F)cc2)cc1 [Compound 24-19, Ethyl (R)-3-(4-((3-(4-(benzofuran-2-yl)phenyl)-1-oxo-1-((4-(trifluoromethyl)phenyl)amino)propan-2-yl)amino)benzamido)propanoate]
– | 1.947 | 0.193 | – | O=C(O)CCNC(=O)c1ccc(N[C@H](Cc2ccc(-c3cc4ccccc4o3)cc2)C(=O)Nc2ccc(C(F)(F)F)cc2)cc1 [Compound 24-20, (R)-3-(4-((3-(4-(benzofuran-2-yl)phenyl)-1-oxo-1-((4-(trifluoromethyl)phenyl)amino)propan-2-yl)amino)benzamido)propanoic Acid]
– | – | 4.1 | >10 | CCOC(=O)CCNC(=O)c1ccc(N[C@H](Cc2ccc(-c3cc4ccccc4o3)cc2)C(=O)NC(C)C)cc1 [Compound 24-21, Ethyl (R)-3-(4-((3-(4-(benzofuran-2-yl)phenyl)-1-(isopropylamino)-1-oxopropan-2-yl)amino)benzamido)propanoate]
– | 9.522 | 17.6 | – | CC(C)NC(=O)[C@@H](Cc1ccc(-c2cc3ccccc3o2)cc1)Nc1ccc(C(=O)NCCC(=O)O)cc1 [Compound 24-22, (R)-3-(4-((3-(4-(benzofuran-2-yl)phenyl)-1-(isopropylamino)-1-oxopropan-2-yl)amino)benzamido)propanoic Acid]
– | 9.529 | 0.168 | – | CCOC(=O)CCNC(=O)c1ccc(N[C@H](Cc2ccc(-c3cc4ccccc4o3)cc2)C(=O)Nc2cc(F)cc(F)c2)cc1 [Compound 24-23, Ethyl (R)-3-(4-((3-(4-(benzofuran-2-yl)phenyl)-1-((3,5-difluorophenyl)amino)-1-oxopropan-2-yl)amino)benzamido)propanoate]
– | 0.214 | 1.21 | – | O=C(O)CCNC(=O)c1ccc(N[C@H](Cc2ccc(-c3cc4ccccc4o3)cc2)C(=O)Nc2cc(F)cc(F)c2)cc1 [Compound 24-24, (R)-3-(4-((3-(4-(benzofuran-2-yl)phenyl)-1-((3,5-difluorophenyl)amino)-1-oxopropan-2-yl)amino)benzamido)propanoic Acid]
– | – | 0.226 | >10 | CCOC(=O)CCNC(=O)c1ccc(N[C@H](Cc2ccc(-c3ccc(C(C)(C)C)cc3)cc2)C(=O)Nc2ccc(OC(F)(F)F)cc2)cc1 [Compound 24-25, Ethyl (R)-3-(4-((3-(4′-(tert-butyl)-[1,1′-biphenyl]-4-yl)-1-oxo-1-((4-(trifluoromethoxy)phenyl)amino)propan-2-yl)amino)benzamido)propanoate]
– | 0.8313 | 0.0457 | – | CC(C)(C)c1ccc(-c2ccc(C[C@@H](Nc3ccc(C(=O)NCCC(=O)O)cc3)C(=O)Nc3ccc(OC(F)(F)F)cc3)cc2)cc1 [Compound 24-26, (R)-3-(4-((3-(4′-(tat-butyl)-[1,1′-biphenyl]-4-yl)-1-oxo-1-((4-(trifluoromethoxy)phenyl)amino)propan-2-yl)amino)benzamido)propanoic Acid]
– | 0.3185 | 1.28 | – | CCOC(=O)CCNC(=O)c1ccc(N[C@H](Cc2ccc(-c3ccc(C(F)(F)F)cc3)cc2)C(=O)Nc2ccc(OC(F)(F)F)cc2)cc1 [Compound 24-27, Ethyl (R)-3-(4-((1-oxo-1-((4-(trifluoromethoxy)phenyl)amino)-3-(4′-(trifluoromethyl)-[1,1′-biphenyl]-4-yl)propan-2-yl)amino)benzamido)propanoate]
– | 1.54 | 0.0465 | – | O=C(O)CCNC(=O)c1ccc(N[C@H](Cc2ccc(-c3ccc(C(F)(F)F)cc3)cc2)C(=O)Nc2ccc(OC(F)(F)F)cc2)cc1 [Compound 24-28, (R)-3-(4-((1-oxo-1-((4-(trifluoromethoxy)phenyl)amino)-3-(4′-(trifluoromethyl)-[1,1′-biphenyl]-4-yl)propan-2-yl)amino)benzamido)propanoic Acid]
